Holding throughout (assay type): biochemical
Assay [1] deals with hyaluronidase (Bos taurus, UniProt Q2YDK3). In words: Hyaluronidase inhibition test. The settings on record: for inhibition at 20 µg/mL: test concentration 20 μg/ml; for inhibition at 20 µg/mL / inhibition at 40 µg/mL / inhibition at 80 µg/mL: read-out: Percent hyaluronidase inhibition (%); for inhibition at 40 µg/mL: test concentration 40 μg/ml; for hyaluronidase inhibitory activity (in words): statement in the text. Here is the method: Tests for hyaluronidase inhibition of the extract prepared in Example 2 (hereinafter referred to as the “blue rose petal extract”), the HP-20 column fractions of the blue rose petal extract (60% acetonitrile fractions) and rosadelphin A1 were carried out in accordance with a modified version of the method described by Yumie Maeda et al. in Shokukin Eiseigaku Zasshi (Journal of the Food Hygiene Society of Japan) 31(3), 233-237 (1990). Hyaluronic acid is decomposed by hyaluronidase to give N-acetylhexosamine. To measure the hyaluronidase inhibitory activity, the reducing terminal N-acetylglucosamine was quantified in terms of absorbance due to color development as labeled by p-dimethylaminobenzaldehyde (product of Wako Pure Chemical Industries, Ltd. which is hereinafter abbreviated as p-DAB).
A sample solution (40 μL) in 10% DMSO was mixed with 20 μL of 1000 U/mL hyaluronidase (product of Sigma) dissolved in 0.1 M acetate buffer (pH 4.0) and the mixture was preheated at 37° C. for 20 minutes. To the heated mixture, 40 μL of 0.5 mg/mL Compound 48/80 (product of Sigma) dissolved in the same buffer was added and the resulting mixture was allowed to settle at 37° C. for 20 minutes undisturbed until the hyaluronidase was activated. To the solution, 100 μL of a solution of 0.8 mg/mL potassium hyaluronate was added to give a final concentration of 0.4 mg/mL and reaction was effected at 37° C. for 40 minutes; thereafter, 40 μL of 0.4 N sodium hydroxide in solution was added and the mixture was cooled with ice to quench the reaction. To the reaction mixture, 40 μL of 0.8 M boric acid in solution adjusted to pH 9.1 with 6 N NaOH was added and the resulting mixture was boiled at 100° C. for 3 minutes. The mixture was then cooled to room temperature in ice bath; to the cooled mixture, 1.2 mL of 10 mg/mL p-dimethylaminobenzaldehyde (p-DAB) in solution was added while it was shielded from light and after reaction was effected at 37° C. for 20 minutes, the absorbance at 585 nm (A585) was measured. The hyaluronidase inhibitory activity of the sample was expressed in terms of percent inhibition calculated from the following formula: Percent inhibition (%)={1−(a−b)/(c−d)}×100
a: A585 of the sample solution to which the enzyme was added
b: A585 of the sample solution to which no enzyme was added
c: A585 of the control solution to which the enzyme was added
d: A585 of the control solution to which no enzyme was added.
A positive control was prepared by adding not the sample solution, but 800 μg/ml (1.56 mM as molar concentration) of sodium chromoglycate (product of Sigma which is hereinafter abbreviated as DSCG) in an amount of 40 μL to give a test concentration of 160 μg/ml.

Assay [2] concerns collagenase Type IV. In words: Collagenase inhibition test. The settings on record: for collagenase inhibitory activity (in words): statement in the text. As for the experimental part: The blue rose petal extract, fractions thereof as products of treatment on a column (60% acetonitrile fractions), rosadelphin A1, rosacyanin A1, and tellimagrandin 1 were subjected to a collagenase inhibition test in accordance with a modified version of the method described in a document (Wunsch et al., Hoppe Seylers Z Physiol Chem., 333, 149-51 (1963)). For details, see below.
An enzyme solution was prepared by dissolving […] of collagenase Type IV (product of Sigma) in 1 mL of dissolved water to give a concentration of 100 μg/mL (55.1 units/mL) and diluted 50 folds just before use. A substrate solution was prepared by dissolving PZ-peptide (4-phenylazo-benzyloxycarbonyl-Pro-Leu-Gly-Pro-D-Arg-OH) (Pz-Pro-Leu-Gly-Pro-D-Arg-OH; product of Sigma) in a […] calcium chloride containing tris-HCl buffer (pH 7.1) to give a concentration of 0.5 μg/mL. To 20 μL of a solution of sample dissolved in 10% DMSO, 20 μL of the enzyme solution and 160 μL of the substrate solution were added and the mixture was subjected to reaction at 37° C. for 30 minutes. Subsequently, 400 μL of a 25 mM citric acid solution was added to quench the reaction and Pz-Pro-Leu in the reaction mixture was extracted with 2 mL of ethyl acetate. The resulting ethyl acetate layer was measured for absorbance at a wavelength of 320 nm, with ethyl acetate being used as a control. The inhibitory activity of each sample was calculated in terms of the percent inhibition determined by the following formula: Percent collagenase inhibition (%)={1−(a−b)/(c−d)}×100 […]
a: Absorbance after […] reaction in the presence of added sample b: Absorbance after […] reaction in the presence of added sample c: Absorbance after 30 min reaction in the absence of added sample d: Absorbance after 0 min reaction in the absence of added sample.

For assay [3], the target named is T1, elastase (Sus scrofa, UniProt P00772).
T1 construct: purchased Sigma
In words: Elastase inhibition test. Conditions: for elastase inhibiting activity (in words): statement in the text. As for the experimental part: The blue rose petal extract, fractions thereof as products of treatment on a column (60% acetonitrile fractions), rosadelphin A1, rosacyanin A1, and tellimagrandin 1 were subjected to an elastase inhibition test that was performed by the following method.
An enzyme solution was prepared by dissolving 0.1 ml of elastase (product of Sigma) in 0.2 M Tris buffer at pH 8.0 (hereinafter referred to as a Tris buffer) to give a concentration of 0.05 units/mL and diluted 100 folds just before use. A substrate solution was prepared by dissolving N-Succinyl-Ala-Ala-Ala-p-nitroanilide (product of Sigma) in a Tris buffer to give a concentration of 4 mM. To a 96-well plate, 50 μL of a solution of each sample dissolved in 10% DMSO and 50 μL of the enzyme solution were added and after mixing them with a plate shaker, the resulting mixture was preheated at 25° C. for 10 minutes. Subsequently, 100 μL of the substrate solution was added and after mixing with a plate shaker, reaction was carried out at 25° C. for 30 minutes and immediately thereafter, the liberation of p-nitroaniline was assayed by measuring the absorbance at a wavelength of 405 nm (hereinafter designated as A405). A405 measurement was also performed for a blank of sample solution that was prepared by adding a Tris buffer in place of the substrate solution, as well as for a control solution that was prepared by adding 10% DMSO in place of the sample solution. The inhibitory activity of each sample was calculated in terms of the percent inhibition determined by the following formula: Percent elastase inhibition (%)=[(f−e)−{(b−a)−(d−c)}]/(f−e)×100 […]
a: A405(0 min) of the sample solution for enzymatic reaction b: A405(30 min) of the sample solution for enzymatic reaction c: A405(0 min) of the blank of sample solution d: A405(30 min) of the blank of sample solution e: A405(0 min) of the control solution f: A405(30 min) of the control solution.

Setting [4] is: Table 6, test concentration 40 μg/ml.
The mark [5] stands for this setting: Table 3, test concentration 80 μg/ml.
Where [6] appears, read: Table 8, test concentration 40 μg/mL.
[7] abbreviates: Table 8, test concentration 80 μg/mL.
[8] abbreviates: Table 8, test concentration 160 μg/mL.

In brackets after ≈: the same amount, converted by molar mass. Entries after “also recorded” stand apart in the source; their conditions may differ.

Sequence of hyaluronidase (Q2YDK3 entry or part of it): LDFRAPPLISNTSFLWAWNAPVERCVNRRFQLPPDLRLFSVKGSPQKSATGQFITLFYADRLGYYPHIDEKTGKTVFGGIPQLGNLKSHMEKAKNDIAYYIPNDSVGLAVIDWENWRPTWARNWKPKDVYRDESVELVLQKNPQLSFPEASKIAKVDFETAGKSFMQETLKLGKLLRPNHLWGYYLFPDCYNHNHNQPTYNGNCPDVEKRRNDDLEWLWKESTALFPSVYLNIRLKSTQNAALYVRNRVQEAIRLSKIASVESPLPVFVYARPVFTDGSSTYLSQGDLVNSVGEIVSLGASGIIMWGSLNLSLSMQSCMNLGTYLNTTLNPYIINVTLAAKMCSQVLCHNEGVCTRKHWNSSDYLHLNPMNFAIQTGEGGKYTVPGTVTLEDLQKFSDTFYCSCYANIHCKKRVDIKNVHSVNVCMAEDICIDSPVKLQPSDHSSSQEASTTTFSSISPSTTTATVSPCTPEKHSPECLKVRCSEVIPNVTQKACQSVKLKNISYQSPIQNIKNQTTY
T1 sequence (P00772 27-266): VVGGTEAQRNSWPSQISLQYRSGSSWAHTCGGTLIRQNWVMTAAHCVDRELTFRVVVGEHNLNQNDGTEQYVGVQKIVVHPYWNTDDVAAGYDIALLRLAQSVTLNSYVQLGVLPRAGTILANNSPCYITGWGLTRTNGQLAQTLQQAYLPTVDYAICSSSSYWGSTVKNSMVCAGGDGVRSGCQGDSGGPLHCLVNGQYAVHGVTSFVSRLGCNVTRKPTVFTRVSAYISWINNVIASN

For the compound `O=C([O-])c1cc(=O)c2c(OCC(O)COc3cccc4oc(C(=O)[O-])cc(=O)c34)cccc2o1.[Na+].[Na+]` [DSCG, sodium chromoglycate, reference compound], in assay [1] (Table 3, positive control at 160 μg/ml), the “Percent hyaluronidase inhibition (%)” value is on record as “* Percent inhibition by 160 μg/ml DSCG: 22.3%”.

In the case of `CC(C)CCP(=O)([O-])NCC(=O)N1CCCC1C(=O)NC(C)C(=O)[O-].[K+].[K+]` [IP304, isoamylphosphonyl-Glycyl-L-Prolyl-L-Alanine, dipotassium salt, reference compound], the “Percent collagenase inhibition (%)” value in assay [2] (Table 5, test concentration 80 μg/mL) is listed as “* Percent inhibition by 80 μg/mL IP304: 84.1%”; in assay [2] (setting [4]), “*Percent inhibition by 40 μg/ml IP304: 69.7%”.

For the compound `O=C(OC1C(O)OC2COC(=O)c3cc(Oc4c(-c5ccc(O)c(O)c5)[o+]c5cc(O)cc6c5c4-c4c(C(=O)O)cc(O)c(O)c4O6)c(O)c(O)c3-c3c(cc(O)c(O)c3O)C(=O)OC2C1OC(=O)c1cc(O)c(O)c(O)c1)c1cc(O)c(O)c(O)c1` (centres unmarked) [Rosacyanin A1, rosacyanin A1], in assay [1] (Table 3), the inhibition (as a rule, the percentage by which the read-out fell short of the control) at 20 µg/mL stood at 24.7% and the inhibition at 40 µg/mL is 49.1%. Besides, the inhibition at 80 µg/mL in assay [1] (setting [5]) was 93.2%. Also, in assay [1], the “hyaluronidase inhibitory activity (in words)” value is “comparable activity to rosadelphin A1”. The “hyaluronidase inhibitory activity (in words)” value in assay [1] (listed as rosacyanin A1) was “strong hyaluronidase inhibitory activity”. For the same compound, the “elastase inhibiting activity (in words)” value in assay [3] is “strong activity”. In addition, the “Percent collagenase inhibition (%)” value in assay [2] (setting [4]) worked out at 52.0%. For the same compound, the “collagenase inhibitory activity (in words)” value in assay [2] is “greater activity than the blue rose petal extract”.

Regarding `O=C(OC1C(O)OC2COC(=O)c3cc(Oc4c(-c5cc(O)c(O)c(O)c5)[o+]c5cc(O)cc6c5c4-c4c(C(=O)O)cc(O)c(O)c4O6)c(O)c(O)c3-c3c(cc(O)c(O)c3O)C(=O)OC2C1OC(=O)c1cc(O)c(O)c(O)c1)c1cc(O)c(O)c(O)c1` (centres unmarked) [Rosadelphin A1, rosadelphin A1], in assay [1] (Table 3), the inhibition at 20 µg/mL came to 24.4%. Besides, the inhibition at 40 µg/mL is 48.2% in assay [1] (Table 3) and 50.7% in assay [3] (Table 8, test concentration 40 μg/mL, read-out: Percent elastase inhibition (%)). For the same compound, the inhibition at 80 µg/mL in assay [1] (setting [5]) amounted to 95.3%; in assay [3] (Table 8, test concentration 80 μg/mL, read-out: Percent elastase inhibition (%)) it was 58.1%. In addition, the “hyaluronidase inhibitory activity (in words)” value in assay [1] (listed as rosadelphin A1) is “strong activity in a concentration dependent manner; also recorded: strong hyaluronidase inhibitory activity”. The “Percent elastase inhibition (%)” value in assay [3] (setting [6]) was 31.8%; in assay [3] (setting [7]) it was 40.4%; in assay [3] (setting [8]), 49.4%. In addition, in assay [3] (Table 8, test concentration 160 μg/mL, read-out: Percent elastase inhibition (%)), the inhibition at 160 µg/mL was 62%. Also, the “elastase inhibiting activity (in words)” value is “comparable or more than comparable activity to rosacyanin A1” in assay [3] and “strong activity in a concentration dependent manner” in assay [3] (listed as rosadelphin A1). For the same compound, the “Percent collagenase inhibition (%)” value in assay [2] (setting [4]) stood at 42.3%. Further, in assay [2], the “collagenase inhibitory activity (in words)” value was “greater activity than the blue rose petal extract”.

As to `O=C(O[C@H]1[C@@H]2OC(=O)c3cc(O)c(O)c(O)c3-c3c(cc(O)c(O)c3O)C(=O)OC[C@H]2OC(O)[C@@H]1OC(=O)c1cc(O)c(O)c(O)c1)c1cc(O)c(O)c(O)c1` (some centres unmarked) [Tellimagrandin 1, tellimagrandin 1, reference compound], the “IC50 (hyaluronidase inhibition)” value in assay [1] (Table 3) came out at 196.5 µg/mL (≈ 250 µM). For the same compound, the “Percent hyaluronidase inhibition (%)” value in assay [1] (setting [5]) is listed as 64.8%. Moreover, in assay [1], the “hyaluronidase inhibitory activity (in words)” value is “also active, though not so active as rosadelphin A1”. Further, the “Percent elastase inhibition (%)” value is given as 5.9% in assay [3] (setting [6]), 4.6% in assay [3] (setting [7]) and 6.5% in assay [3] (setting [8]). In addition, the entries for the “elastase inhibiting activity (in words)” value in assay [3] and in assay [3] (listed as tellimagrandin 1) were “weak activity” and “little activity”, respectively. Besides, the “Percent collagenase inhibition (%)” value in assay [2] (setting [4]) is 42.7%. Moreover, the “collagenase inhibitory activity (in words)” value in assay [2] is “greater activity than the blue rose petal extract”.

The values are drawn from patent publication US10105313B2, “Uses of rose pigment compounds” (SUNTORY HOLDINGS LIMITED, priority 2014, dated 2018).
